Data as given in patent publication US4245106A, “Process for the preparation of 1-alkyl-3-aryl-4-pyrazolecarboxylates” (Monsanto Company, priority 1979, dated 1981).

Legend:
Format in all cases: in vivo
Quackgrass [1] = assay: pre-emergent herbicidal activity test
Procedure: (§1) Table II summarizes results of tests conducted to determine the pre-emergent as well as the post-emergent herbicidal activity of the compounds. The pre-emergent test was conducted as follows:
(§2) A good grade of top soil was placed in aluminum pans and compacted to a depth of three-eighths to one-half inch from the top of the pan. On the top of the soil was placed a predetermined number of seeds or vegetative propagules of various plant species. The soil required to level fill the pans after seeding or adding vegetative propagules was weighed into a pan. A known amount of the active ingredient applied in a solvent or as a wettable powder and the soil were thoroughly mixed, and used as a cover layer for prepared pans. After treatment the pans were moved into a greenhouse bench where they were watered from below as needed to give adequate moisture for germination and growth.
(§3) A herbicial rating code was used to signify the extent of phytotoxicity of each species. The rating are defined as follows: […]

Velvetleaf [2] = assay: pre-emergent herbicidal activity test
Procedure: as §1, §2, §3

Lambsquarter [3] = assay: pre-emergent herbicidal activity test
Procedure: as §1, §2, §3

Canada Thistle [4] = assay: pre-emergent herbicidal activity test
Procedure: as §1, §2, §3

Cocklebur [5] = assay: pre-emergent herbicidal activity test
Procedure: as §1, §2, §3

Johnsongrass [6] = assay: pre-emergent herbicidal activity test
Procedure: as §1, §2, §3

Barnyard grass [7] = assay: pre-emergent herbicidal activity test
Procedure: as §1, §2, §3

Morningglory [8] = assay: pre-emergent herbicidal activity test
Procedure: as §1, §2, §3

Smartweed [9] = assay: pre-emergent herbicidal activity test
Procedure: as §1, §2, §3

Bromus tectorum [10] = assay: pre-emergent herbicidal activity test
Procedure: as §1, §2, §3

Nutsedge [11] = assay: pre-emergent herbicidal activity test
Procedure: as §1, §2, §3

Quackgrass [12] = assay: post-emergent herbicidal activity test
Procedure: (§4) The post-emergent tests were conducted as follows. The active ingredients are applied in spray form to two or three-week old specimens of various plant species. The spray, a solution or wettable powder suspension containing the appropriate rate of active ingredient to give the desired test rate and a surfactant, is applied to the plants. The treated plants are placed in a greenhouse and unless otherwise noted approximately four weeks later the effects are observed and recorded.

Velvetleaf [13] = assay: post-emergent herbicidal activity test
Procedure: as §4

Lambsquarter [14] = assay: post-emergent herbicidal activity test
Procedure: as §4

Canada Thistle [15] = assay: post-emergent herbicidal activity test
Procedure: as §4

Cocklebur [16] = assay: post-emergent herbicidal activity test
Procedure: as §4

Johnsongrass [17] = assay: post-emergent herbicidal activity test
Procedure: as §4

Barnyard grass [18] = assay: post-emergent herbicidal activity test
Procedure: as §4

Morningglory [19] = assay: post-emergent herbicidal activity test
Procedure: as §4

Smartweed [20] = assay: post-emergent herbicidal activity test
Procedure: as §4

Bromus tectorum [21] = assay: post-emergent herbicidal activity test
Procedure: as §4

Nutsedge [22] = assay: post-emergent herbicidal activity test
Procedure: as §4

[23] = *11.2 Kg/Ha, observed approximately 14 days after treatment
[24] = 11.2 Kg/Ha, approximately four weeks later
[25] = 11.2 Kg/Ha, approximately 28 days after seeding and treating
Note: ranges in brackets are in %.

## CCOC(=O)c1cn(C)nc1-c1ccc(OC)cc1 [Example 31]
Quackgrass [1]; [23]
  Pre-Emergent herbicidal rating, H Quackgrass: 0 (0-24)
Velvetleaf [2]; [23]
  Pre-Emergent herbicidal rating, C Velvetleaf: 0 (0-24)
Lambsquarter [3]; [23]
  Pre-Emergent herbicidal rating, E Lambsquarter: 0 (0-24)
Canada Thistle [4]; [23]
  Pre-Emergent herbicidal rating, A Canada Thistle: 0 (0-24)
Cocklebur [5]; [23]
  Pre-Emergent herbicidal rating, B Cocklebur: 0 (0-24)
Johnsongrass [6]; [23]
  Pre-Emergent herbicidal rating, I Johnsongrass: 0 (0-24)
Barnyard grass [7]; [23]
  Pre-Emergent herbicidal rating, K Barnyard grass: 0 (0-24)
Morningglory [8]; [23]
  Pre-Emergent herbicidal rating, D Morningglory: 0 (0-24)
Smartweed [9]; [23]
  Pre-Emergent herbicidal rating, F Smartweed: 0 (0-24)
Bromus tectorum [10]; [23]
  Pre-Emergent herbicidal rating, J Bromus tectorum: 0 (0-24)
Nutsedge [11]; [23]
  Pre-Emergent herbicidal rating, G Nutsedge: 0 (0-24)
Quackgrass [12]; [24]
  Post-Emergent herbicidal rating, H Quackgrass: 0 (0-24)
Velvetleaf [13]; [24]
  Post-Emergent herbicidal rating, C Velvetleaf: 1 (25-49)
Lambsquarter [14]; [24]
  Post-Emergent herbicidal rating, E Lambsquarter: 4 (100)
Canada Thistle [15]; [24]
  Post-Emergent herbicidal rating, A Canada Thistle: 0 (0-24)
Cocklebur [16]; [24]
  Post-Emergent herbicidal rating, B Cocklebur: 0 (0-24)
Johnsongrass [17]; [24]
  Post-Emergent herbicidal rating, I Johnsongrass: 0 (0-24)
Barnyard grass [18]; [24]
  Post-Emergent herbicidal rating, K Barnyard grass: 1 (25-49)
Morningglory [19]; [24]
  Post-Emergent herbicidal rating, D Morningglory: 1 (25-49)
Smartweed [20]; [24]
  Post-Emergent herbicidal rating, F Smartweed: 4 (100)
Bromus tectorum [21]; [24]
  Post-Emergent herbicidal rating, J Bromus tectorum: 0 (0-24)
Nutsedge [22]; [24]
  Post-Emergent herbicidal rating, G Nutsedge: 0 (0-24)

## CCOC(=O)c1cn(C)nc1-c1cccc(C(F)(F)F)c1 [Example 12]
Quackgrass [1]; [25]
  Pre-Emergent herbicidal rating, H Quackgrass: 0 (0-24)
Quackgrass [1]; [23]
  Pre-Emergent herbicidal rating, H Quackgrass: 0 (0-24)
Velvetleaf [2]; [25]
  Pre-Emergent herbicidal rating, C Velvetleaf: 3 (75-100)
Velvetleaf [2]; [23]
  Pre-Emergent herbicidal rating, C Velvetleaf: 3 (75-100)
Lambsquarter [3]; [25]
  Pre-Emergent herbicidal rating, E Lambsquarter: 3 (75-100)
Lambsquarter [3]; [23]
  Pre-Emergent herbicidal rating, E Lambsquarter: 3 (75-100)
Canada Thistle [4]; [25]
  Pre-Emergent herbicidal rating, A Canada Thistle: 0 (0-24)
Canada Thistle [4]; [23]
  Pre-Emergent herbicidal rating, A Canada Thistle: 2 (50-74)
Cocklebur [5]; [25]
  Pre-Emergent herbicidal rating, B Cocklebur: 0 (0-24)
Cocklebur [5]; [23]
  Pre-Emergent herbicidal rating, B Cocklebur: 0 (0-24)
Johnsongrass [6]; [25]
  Pre-Emergent herbicidal rating, I Johnsongrass: 0 (0-24)
Johnsongrass [6]; [23]
  Pre-Emergent herbicidal rating, I Johnsongrass: 0 (0-24)
Barnyard grass [7]; [25]
  Pre-Emergent herbicidal rating, K Barnyard grass: 3 (75-100)
Barnyard grass [7]; [23]
  Pre-Emergent herbicidal rating, K Barnyard grass: 3 (75-100)
Morningglory [8]; [25]
  Pre-Emergent herbicidal rating, D Morningglory: 3 (75-100)
Morningglory [8]; [23]
  Pre-Emergent herbicidal rating, D Morningglory: 3 (75-100)
Smartweed [9]; [25]
  Pre-Emergent herbicidal rating, F Smartweed: 3 (75-100)
Smartweed [9]; [23]
  Pre-Emergent herbicidal rating, F Smartweed: 3 (75-100)
Bromus tectorum [10]; [25]
  Pre-Emergent herbicidal rating, J Bromus tectorum: 1 (25-49)
Bromus tectorum [10]; [23]
  Pre-Emergent herbicidal rating, J Bromus tectorum: 2 (50-74)
Nutsedge [11]; [25]
  Pre-Emergent herbicidal rating, G Nutsedge: 0 (0-24)
Nutsedge [11]; [23]
  Pre-Emergent herbicidal rating, G Nutsedge: 0 (0-24)
Quackgrass [12]; [24]
  Post-Emergent herbicidal rating, H Quackgrass: 0 (0-24)
Quackgrass [12]; [23]
  Post-Emergent herbicidal rating, H Quackgrass: 0 (0-24)
Velvetleaf [13]; [24]
  Post-Emergent herbicidal rating, C Velvetleaf: 1 (25-49)
Velvetleaf [13]; [23]
  Post-Emergent herbicidal rating, C Velvetleaf: 1 (25-49)
Lambsquarter [14]; [24]
  Post-Emergent herbicidal rating, E Lambsquarter: 1 (25-49)
Lambsquarter [14]; [23]
  Post-Emergent herbicidal rating, E Lambsquarter: 2 (50-74)
Canada Thistle [15]; [24]
  Post-Emergent herbicidal rating, A Canada Thistle: 1 (25-49)
Canada Thistle [15]; [23]
  Post-Emergent herbicidal rating, A Canada Thistle: 1 (25-49)
Cocklebur [16]; [24]
  Post-Emergent herbicidal rating, B Cocklebur: 1 (25-49)
Cocklebur [16]; [23]
  Post-Emergent herbicidal rating, B Cocklebur: 1 (25-49)
Johnsongrass [17]; [24]
  Post-Emergent herbicidal rating, I Johnsongrass: 0 (0-24)
Johnsongrass [17]; [23]
  Post-Emergent herbicidal rating, I Johnsongrass: 0 (0-24)
Barnyard grass [18]; [24]
  Post-Emergent herbicidal rating, K Barnyard grass: 0 (0-24)
Barnyard grass [18]; [23]
  Post-Emergent herbicidal rating, K Barnyard grass: 1 (25-49)
Morningglory [19]; [24]
  Post-Emergent herbicidal rating, D Morningglory: 2 (50-74)
Morningglory [19]; [23]
  Post-Emergent herbicidal rating, D Morningglory: 3 (75-99)
Smartweed [20]; [24]
  Post-Emergent herbicidal rating, F Smartweed: 1 (25-49)
Smartweed [20]; [23]
  Post-Emergent herbicidal rating, F Smartweed: 0 (0-24)
Bromus tectorum [21]; [24]
  Post-Emergent herbicidal rating, J Bromus tectorum: 0 (0-24)
Bromus tectorum [21]; [23]
  Post-Emergent herbicidal rating, J Bromus tectorum: 0 (0-24)
Nutsedge [22]; [24]
  Post-Emergent herbicidal rating, G Nutsedge: 0 (0-24)
Nutsedge [22]; [23]
  Post-Emergent herbicidal rating, G Nutsedge: 0 (0-24)
